Experimental data from ChEMBL document CHEMBL3045838, “Synthesis, antimicrobial and antioxidant activities of 2-[1-{3,5-diaryl-4,5-dihydro-1H-pyrazolenyl}]-4-(4-nitrophenyl)-[1,3]-thiazoles” (2013).
Converted amounts (≈) assume the structure as drawn.

What was measured:
Format in all cases: functional
[1] = test system: Escherichia coli; experiment: Antibacterial activity against Escherichia coli ATCC 25922 assessed as growth inhibition at 1.56 to 25 ug/mL
[2] = test system: Escherichia coli; experiment: microbe, parasite or virus in culture; settings: ATCC 25922
Description: Antibacterial activity against Escherichia coli ATCC 25922 assessed as growth inhibition by serial plate dilution method

[3] = test system: Staphylococcus aureus; experiment: Antibacterial activity against Staphylococcus aureus ATCC 25923 assessed as growth inhibition at 1.56 to 25 ug/mL
[4] = test system: Staphylococcus aureus; experiment: Antibacterial activity against Staphylococcus aureus ATCC 25923 assessed as growth inhibition by serial plate dilution method
[5] = test system: Radical scavenging activity; experiment: Antioxidant activity assessed as inhibition of DPPH radical generation at 4000 ug/mL after 15 min by UV-Vis spectrophotometric analysis relative to control; settings: at 4000 µg/mL
[6] = test system: Aspergillus fumigatus; experiment: Antifungal activity against Aspergillus fumigatus NCIM 902 assessed as growth inhibition at 1.56 to 25 ug/mL
[7] = test system: Aspergillus fumigatus; experiment: Antifungal activity against Aspergillus fumigatus NCIM 902 assessed as growth inhibition by serial plate dilution method
[8] = test system: Aspergillus flavus; experiment: Antifungal activity against Aspergillus flavus NCIM 524 assessed as growth inhibition at 1.56 to 25 ug/mL
[9] = test system: Aspergillus flavus; experiment: Antifungal activity against Aspergillus flavus NCIM 524 assessed as growth inhibition by serial plate dilution method
[10] = test system: Trichophyton mentagrophytes; experiment: Antifungal activity against Trichophyton mentagrophytes assessed as growth inhibition at 1.56 to 25 ug/mL
[11] = test system: Trichophyton mentagrophytes; experiment: Antifungal activity against Trichophyton mentagrophytes assessed as growth inhibition by serial plate dilution method
[12] = test system: Talaromyces marneffei; experiment: Antifungal activity against Talaromyces marneffei assessed as growth inhibition at 1.56 to 25 ug/mL
[13] = test system: Talaromyces marneffei; experiment: Antifungal activity against Talaromyces marneffei assessed as growth inhibition by serial plate dilution method
[14] = test system: Klebsiella pneumoniae; experiment: Antibacterial activity against Klebsiella pneumoniae assessed as growth inhibition by serial plate dilution method
[15] = test system: Klebsiella pneumoniae; experiment: Antibacterial activity against Klebsiella pneumoniae assessed as growth inhibition at 1.56 to 25 ug/mL
[16] = test system: Pseudomonas aeruginosa; experiment: Antibacterial activity against Pseudomonas aeruginosa ATCC 27853 assessed as growth inhibition at 1.56 to 25 ug/mL
[17] = test system: Pseudomonas aeruginosa; experiment: Antibacterial activity against Pseudomonas aeruginosa ATCC 27853 assessed as growth inhibition by serial plate dilution method

Row | SMILES | diameter of the inhibition zone (DIZ) [1] | MIC [2] | diameter of the inhibition zone (DIZ) [3] | MIC [4] | inhibition [5] | diameter of the inhibition zone (DIZ) [6] | MIC [7] | diameter of the inhibition zone (DIZ) [8] | MIC [9] | diameter of the inhibition zone (DIZ) [10] | MIC [11] | diameter of the inhibition zone (DIZ) [12] | MIC [13] | MIC [14] | diameter of the inhibition zone (DIZ) [15] | diameter of the inhibition zone (DIZ) [16] | MIC [17]
1 | CSc1ccc(C2CC(c3ccc(Cl)cc3Cl)=NN2c2nc(-c3ccc([N+](=O)[O-])cc3)cs2)cc1 (stereo unspecified) | 16 mm | 6.25 µg/mL (≈ 11.5 µM) | 16 mm | 6.25 µg/mL (≈ 11.5 µM) | 88% | 16 mm | 6.25 µg/mL (≈ 11.5 µM) | 16 mm | 6.25 µg/mL (≈ 11.5 µM) | 16 mm | 6.25 µg/mL (≈ 11.5 µM) | 16 mm | 6.25 µg/mL (≈ 11.5 µM) | 6.25 µg/mL (≈ 11.5 µM) | 16 mm | 16 mm | 6.25 µg/mL (≈ 11.5 µM)
2 | CSc1ccc(C2CC(c3ccc(Cl)cc3)=NN2c2nc(-c3ccc([N+](=O)[O-])cc3)cs2)cc1 (stereo unspecified) | 16 mm | 6.25 µg/mL (≈ 12.3 µM) | 16 mm | 6.25 µg/mL (≈ 12.3 µM) | 38% | 16 mm | 6.25 µg/mL (≈ 12.3 µM) | 16 mm | 6.25 µg/mL (≈ 12.3 µM) | 16 mm | 6.25 µg/mL (≈ 12.3 µM) | 16 mm | 6.25 µg/mL (≈ 12.3 µM) | 6.25 µg/mL (≈ 12.3 µM) | 16 mm | 16 mm | 6.25 µg/mL (≈ 12.3 µM)
3 | COc1ccc(C2=NN(c3nc(-c4ccc([N+](=O)[O-])cc4)cs3)C(c3ccc(-c4ccc(Cl)cc4[N+](=O)[O-])o3)C2)cc1OC (stereo unspecified) | 11 mm | 12.5 µg/mL (≈ 19.8 µM) | 11 mm | 12.5 µg/mL (≈ 19.8 µM) | 82% | 11 mm | 12.5 µg/mL (≈ 19.8 µM) | 11 mm | 12.5 µg/mL (≈ 19.8 µM) | 11 mm | 12.5 µg/mL (≈ 19.8 µM) | 11 mm | 12.5 µg/mL (≈ 19.8 µM) | 12.5 µg/mL (≈ 19.8 µM) | 11 mm | 11 mm | 12.5 µg/mL (≈ 19.8 µM)
4 | COc1ccc(C2=NN(c3nc(-c4ccc([N+](=O)[O-])cc4)cs3)C(c3ccc(-c4ccc(Br)cc4)o3)C2)cc1OC (stereo unspecified) | 11 mm | 12.5 µg/mL (≈ 19.8 µM) | 11 mm | 12.5 µg/mL (≈ 19.8 µM) | 69% | 11 mm | 12.5 µg/mL (≈ 19.8 µM) | 11 mm | 12.5 µg/mL (≈ 19.8 µM) | 11 mm | 12.5 µg/mL (≈ 19.8 µM) | 11 mm | 12.5 µg/mL (≈ 19.8 µM) | 12.5 µg/mL (≈ 19.8 µM) | 11 mm | 11 mm | 12.5 µg/mL (≈ 19.8 µM)
5 | COc1ccc(C2=NN(c3nc(-c4ccc([N+](=O)[O-])cc4)cs3)C(c3ccc(-c4ccc([N+](=O)[O-])cc4C)o3)C2)cc1OC (stereo unspecified) | 16 mm | 6.25 µg/mL (≈ 10.2 µM) | 16 mm | 6.25 µg/mL (≈ 10.2 µM) | 14% | 16 mm | 6.25 µg/mL (≈ 10.2 µM) | 16 mm | 6.25 µg/mL (≈ 10.2 µM) | 16 mm | 6.25 µg/mL (≈ 10.2 µM) | 16 mm | 6.25 µg/mL (≈ 10.2 µM) | 6.25 µg/mL (≈ 10.2 µM) | 16 mm | 16 mm | 6.25 µg/mL (≈ 10.2 µM)
6 | O=C1O[C@H]([C@@H](O)CO)C(O)=C1O |  |  |  |  | 96% |  |  |  |  |  |  |  |  |  |  |  | 
7 | COc1ccc(C2=NN(c3nc(-c4ccc([N+](=O)[O-])cc4)cs3)C(c3ccc(-c4ccc(Cl)cc4)o3)C2)cc1OC (stereo unspecified) | 16 mm | 6.25 µg/mL (≈ 10.6 µM) | 16 mm | 6.25 µg/mL (≈ 10.6 µM) | 35% | 16 mm | 6.25 µg/mL (≈ 10.6 µM) | 16 mm | 6.25 µg/mL (≈ 10.6 µM) | 16 mm | 6.25 µg/mL (≈ 10.6 µM) | 16 mm | 6.25 µg/mL (≈ 10.6 µM) | 6.25 µg/mL (≈ 10.6 µM) | 16 mm | 16 mm | 6.25 µg/mL (≈ 10.6 µM)
8 | COc1ccc(C2=NN(c3nc(-c4ccc([N+](=O)[O-])cc4)cs3)C(c3ccc(-c4cc(Cl)c(Cl)cc4Cl)o3)C2)cc1OC (stereo unspecified) | 16 mm | 6.25 µg/mL (≈ 9.53 µM) | 16 mm | 6.25 µg/mL (≈ 9.53 µM) | 57% | 16 mm | 6.25 µg/mL (≈ 9.53 µM) | 16 mm | 6.25 µg/mL (≈ 9.53 µM) | 16 mm | 6.25 µg/mL (≈ 9.53 µM) | 16 mm | 6.25 µg/mL (≈ 9.53 µM) | 6.25 µg/mL (≈ 9.53 µM) | 16 mm | 16 mm | 6.25 µg/mL (≈ 9.53 µM)
9 | O=[N+]([O-])c1ccc(-c2csc(N3N=C(c4ccccc4)CC3c3ccc(-c4ccc(Cl)cc4)o3)n2)cc1 (stereo unspecified) | 11 mm | 12.5 µg/mL (≈ 23.7 µM) | 11 mm | 12.5 µg/mL (≈ 23.7 µM) | 45% | 11 mm | 12.5 µg/mL (≈ 23.7 µM) | 11 mm | 12.5 µg/mL (≈ 23.7 µM) | 11 mm | 12.5 µg/mL (≈ 23.7 µM) | 11 mm | 12.5 µg/mL (≈ 23.7 µM) | 12.5 µg/mL (≈ 23.7 µM) | 11 mm | 11 mm | 12.5 µg/mL (≈ 23.7 µM)
10 | COc1ccc(C2=NN(c3nc(-c4ccc([N+](=O)[O-])cc4)cs3)C(c3ccc(-c4c(C)cccc4[N+](=O)[O-])o3)C2)cc1OC (stereo unspecified) | 11 mm | 12.5 µg/mL (≈ 20.4 µM) | 11 mm | 12.5 µg/mL (≈ 20.4 µM) | 66% | 11 mm | 12.5 µg/mL (≈ 20.4 µM) | 11 mm | 12.5 µg/mL (≈ 20.4 µM) | 11 mm | 12.5 µg/mL (≈ 20.4 µM) | 11 mm | 12.5 µg/mL (≈ 20.4 µM) | 12.5 µg/mL (≈ 20.4 µM) | 11 mm | 11 mm | 12.5 µg/mL (≈ 20.4 µM)
11 | CSc1ccc(C2CC(c3ccc([N+](=O)[O-])cc3)=NN2c2nc(-c3ccc([N+](=O)[O-])cc3)cs2)cc1 (stereo unspecified) | < 10 mm | 25 µg/mL (≈ 48.3 µM) | < 10 mm | 25 µg/mL (≈ 48.3 µM) | 75% | < 10 mm | 25 µg/mL (≈ 48.3 µM) | < 10 mm | 25 µg/mL (≈ 48.3 µM) | < 10 mm | 25 µg/mL (≈ 48.3 µM) | < 10 mm | 25 µg/mL (≈ 48.3 µM) | 25 µg/mL (≈ 48.3 µM) | < 10 mm | < 10 mm | 25 µg/mL (≈ 48.3 µM)
12 | COc1ccc(C2=NN(c3nc(-c4ccc([N+](=O)[O-])cc4)cs3)C(c3ccc(-c4ccc([N+](=O)[O-])cc4)o3)C2)cc1OC (stereo unspecified) | 16 mm | 6.25 µg/mL (≈ 10.5 µM) | 16 mm | 6.25 µg/mL (≈ 10.5 µM) | 62% | 16 mm | 6.25 µg/mL (≈ 10.5 µM) | 16 mm | 6.25 µg/mL (≈ 10.5 µM) | 16 mm | 6.25 µg/mL (≈ 10.5 µM) | 16 mm | 6.25 µg/mL (≈ 10.5 µM) | 6.25 µg/mL (≈ 10.5 µM) | 16 mm | 16 mm | 6.25 µg/mL (≈ 10.5 µM)
13 | COc1ccc(C2=NN(c3nc(-c4ccc([N+](=O)[O-])cc4)cs3)C(c3ccc(-c4ccc(F)c(Cl)c4)o3)C2)cc1OC (stereo unspecified) | 16 mm | 6.25 µg/mL (≈ 10.3 µM) | 16 mm | 6.25 µg/mL (≈ 10.3 µM) | 74% | 16 mm | 6.25 µg/mL (≈ 10.3 µM) | 16 mm | 6.25 µg/mL (≈ 10.3 µM) | 16 mm | 6.25 µg/mL (≈ 10.3 µM) | 16 mm | 6.25 µg/mL (≈ 10.3 µM) | 6.25 µg/mL (≈ 10.3 µM) | 16 mm | 16 mm | 6.25 µg/mL (≈ 10.3 µM)
14 | CCC(C)n1ncn(-c2ccc(N3CCN(c4ccc(OCC5COC(Cn6cncn6)(c6ccc(Cl)cc6Cl)O5)cc4)CC3)cc2)c1=O (stereo unspecified) [ITRACONAZOLE] |  |  |  |  |  | 30 mm | 6.25 µg/mL (≈ 8.86 µM) | 22 mm | 1.56 µg/mL (≈ 2.21 µM) | 23 mm | 6.25 µg/mL (≈ 8.86 µM) | 25 mm | 6.25 µg/mL (≈ 8.86 µM) |  |  |  | 
15 | CC1(C)S[C@@H]2[C@H](NC(=O)[C@H](N)c3ccccc3)C(=O)N2[C@H]1C(=O)O [AMPICILLIN] | 30 mm | 6.25 µg/mL (≈ 17.9 µM) | 22 mm | 1.56 µg/mL (≈ 4.46 µM) |  |  |  |  |  |  |  |  |  | 6.25 µg/mL (≈ 17.9 µM) | 23 mm | 25 mm | 6.25 µg/mL (≈ 17.9 µM)
